Measurements reported in patent publication US20220315621A1, “COMPOSITIONS AND METHODS FOR TREATING CNS DISORDERS” (priority 2017, published 2022).

The molecules below were run against GABAA receptor (rat brain cortical membranes, [35S]-TBPS binding). Conditions: Table I-4; rat brain cortical membranes, 3 nM [35S]-TBPS, in the presence of 5 mM GABA.

First: COC[C@@]1(O)CC[C@H]2[C@H](CC[C@@H]3[C@@H]2CC[C@]2(C)[C@@H](OC)CCC[C@@H]32)C1 [I-N11, (2R,4aS,4bR,6aS,7S,10aS,10bR,12aR)-7-methoxy-2-(methoxymethyl)-6a-methyloctadecahydrochrysen-2-ol]
Second: CCOC[C@@]1(O)CC[C@H]2[C@@H](CC[C@@H]3[C@@H]2CC[C@]2(C)[C@@H](OC)CCC[C@@H]32)C1 [Compound I-40, (2R,4aS,4bR,6aS,7S,10aS,10bR,12aS)-2-(ethoxymethyl)-7-methoxy-6a-methyloctadecahydrochrysen-2-ol]
The IC50 of the first is lower: 10 to 100 nM for the first, 100 to 1000 nM for the second. The first is the more potent here.

First: COC[C@@]1(O)CC[C@H]2[C@@H](CC[C@@H]3[C@@H]2CC[C@]2(C)[C@@H](C(=O)NCc4ccccn4)CCC[C@@H]32)C1 [Compound I-26, (1S,4aS,4bR,6aS,8R,10aS,10bR,12aS)-8-hydroxy-8-(methoxymethyl)-12a-methyl-N-(pyridin-2-ylmethyl)octadecahydrochrysene-1-carboxamide]
Second: C[C@@]1(O)CC[C@H]2[C@H](CC[C@@H]3[C@@H]2CC[C@]2(C)[C@@H](C(=O)NCc4ccccn4)CCC[C@@H]32)C1 [Compound I-17, (1S,4aS,4bR,6aR,8R,10aS,10bR,12aS)-8-hydroxy-8,12a-dimethyl-N-(pyridin-2-ylmethyl)octadecahydrochrysene-1-carboxamide]
The IC50 of the first is higher: 100 to 1000 nM for the first, 10 to 100 nM for the second.

First: COC[C@@]1(O)CC[C@H]2[C@@H](CC[C@@H]3[C@@H]2CC[C@]2(C)[C@@H](C(=O)Cn4nnnc4C)CCC[C@@H]32)C1 [I-G16a, 1-((1S,4aS,4bR,6aS,8R,10aS,10bR,12aS)-8-hydroxy-8-(methoxymethyl)-12a-methyloctadecahydrochrysen-1-yl)-2-(5-methyl-1H-tetrazol-1-yl)ethan-1-one]
Second: CCOC[C@@]1(O)CC[C@H]2[C@@H](CC[C@@H]3[C@@H]2CC[C@]2(C)[C@@H](C(C)=O)CCC[C@@H]32)C1 [I-S3, 1-((1S,4aS,4bR,6aS,8R,10aS,10bR,12aS)-8-(ethoxymethyl)-8-hydroxy-12a-methyloctadecahydrochrysen-1-yl)ethan-1-one]
The IC50 of the first is lower: 10 to 100 nM for the first, 100 to 1000 nM for the second.

CCOC[C@@]1(O)CC[C@H]2[C@@H](CC[C@@H]3[C@@H]2CC[C@]2(C)[C@@H](O)CCC[C@@H]32)C1 [Compound I-39, (1S,4aS,4bR,6aS,8R,10aS,10bR,12aS)-8-(ethoxymethyl)-12a-methyloctadecahydrochrysene-1,8-diol] and COC[C@@]1(OC)CC[C@H]2[C@H](CC[C@@H]3[C@@H]2CC[C@]2(C)[C@@H](O)CCC[C@@H]32)C1 [I-L9, (1S,4aS,4bR,6aR,8R,10aS,10bR,12aS)-8-methoxy-8-(methoxymethyl)-12a-methyloctadecahydrochrysen-l-ol] fall in the same range of IC50: 1000 to 10000 nM for the first, 1000 to 10000 nM for the second.

First: C[C@@]1(O)CC[C@H]2[C@H](CC[C@@H]3[C@@H]2CC[C@]2(C)C[C@@H](C(=O)c4ccccc4)CC[C@@H]32)C1 [I-R21, ((2S,4aS,4bR,6aR,8R,10aS,10bR,12aR)-8-hydroxy-8,12a-dimethyloctadecahydrochrysen-2-yl)(phenyl)methanone]
Second: C[C@@]1(O)CC[C@H]2[C@H](CC[C@@H]3[C@@H]2CC[C@]2(C)[C@@H](Nc4cccc(Cl)c4)CCC[C@@H]32)C1 [Compound I-9, (2R,4aS,4bR,6aS,7S,10aS,10bR,12aR)-7-((3-chlorophenyl)amino)-2,6a-dimethyloctadecahydrochrysen-2-ol]
The IC50 of the first is higher: 100 to 1000 nM for the first, 10 to 100 nM for the second.

COC[C@@]1(O)CC[C@H]2[C@H](CC[C@@H]3[C@@H]2CC[C@]2(C)[C@@H](C(=O)N4CCCC[C@@H]4C)CCC[C@@H]32)C1 [I-L14, ((1S,4aS,4bR,6aR,8R,10aS,10bR,12aS)-8-hydroxy-8-(methoxymethyl)-12a-methyloctadecahydrochrysen-1-yl)((S)-2-methylpiperidin-1-yl)methanone] and CCOC[C@@]1(O)CC[C@H]2[C@H](CC[C@@H]3[C@@H]2CC[C@]2(C)[C@@H](C(=O)N4CCCC[C@@H]4C)CCC[C@@H]32)C1 [I-P9, ((1S,4aS,4bR,6aR,8R,10aS,10bR,12aS)-8-(ethoxymethyl)-8-hydroxy-12a-methyloctadecahydrochrysen-l-yl)((S)-2-methylpiperidin-1-yl)methanone] fall in the same range of IC50: 100 to 1000 nM for the first, 100 to 1000 nM for the second.

First: C[C@@]1(O)CC[C@H]2[C@H](CC[C@@H]3[C@@H]2CC[C@]2(C)[C@@H](Nc4ccc(F)cc4)CCC[C@@H]32)C1 [Compound I-11, (2R,4aS,4bR,6aS,7S,10aS,10bR,12aR)-7-((4-fluorophenyl)amino)-2,6a-dimethyloctadecahydrochrysen-2-ol]
Second: C[C@@]1(O)CC[C@H]2[C@H](CC[C@@H]3[C@@H]2CC[C@]2(C)[C@@H](Nc4ccc(C#N)cc4)CCC[C@@H]32)C1 [Compound I-7, 4-(((1S,4aS,4bR,6aR,8R,10aS,10bR,12aS)-8-hydroxy-8,12a-dimethyloctadecahydrochrysen-1-yl)amino)benzonitrile]
The IC50 of the first is higher: 100 to 1000 nM for the first, 10 to 100 nM for the second. The second is the more potent here.

First: COC[C@@]1(O)CC[C@H]2[C@@H](CC[C@@H]3[C@@H]2CC[C@]2(C)[C@H](Nc4ccc(F)cc4)CCC[C@@H]32)C1 [Compound I-23a, (2R,4aS,4bR,6aS,7R,10aS,10bR,12aS)-7-((4-fluorophenyl)amino)-2-(methoxymethyl)-6a-methyloctadecahydrochrysen-2-ol]
Second: C[C@@]1(O)CC[C@H]2[C@H](CC[C@@H]3[C@@H]2CC[C@]2(C)[C@H](Nc4cccc(C#N)c4)CCC[C@@H]32)C1 [Compound I-10a, 3-(((1R,4aS,4bR,6aR,8R,10aS,10bR,12aS)-8-hydroxy-8,12a-dimethyloctadecahydrochrysen-1-yl)amino)benzonitrile]
The IC50 of the first is higher: 1000 to 10000 nM for the first, 100 to 1000 nM for the second.

In the case of C[C@H]1CCCCN1C(=O)[C@H]1CCC[C@H]2[C@@H]3CC[C@@H]4C[C@](C)(O)CC[C@@H]4[C@H]3CC[C@]12C [I-E4, ((1S,4aS,4bR,6aR,8R,10aS,10bR,12aS)-8-hydroxy-8,12a-dimethyloctadecahydrochrysen-1-yl)((S)-2-methylpiperidin-1-yl)methanone], the IC50 is reported as 100 to 1000 nM.

Same assay, conditions: Table I-5; rat brain cortical membranes, 3 nM [35S]-TBPS, in the presence of 5 mM GABA

COC[C@@]1(O)CC[C@H]2[C@H](CC[C@@H]3[C@@H]2CC[C@]2(C)[C@@H](C(=O)Nc4ccccc4)C[C@@H]32)C1 [I-AC8, (1S,2aS,2bR,4aR,6R,8aS,8bR,10aS)-6-hydroxy-6-(methoxymethyl)-10a-methyl-N-phenylhexadecahydrocyclobuta[a]phenanthrene-1-carboxamide] and C[C@@]1(O)CC[C@H]2[C@H](CC[C@@H]3[C@@H]2CC[C@]2(C)[C@H](C(=O)Nc4ccccc4)C[C@@H]32)C1 [I-AA6a, (1R,2aS,2bR,4aR,6R,8aS,8bR,10aS)-6-hydroxy-6,10a-dimethyl-N-phenylhexadecahydrocyclobuta[a]phenanthrene-1-carboxamide] fall in the same range of IC50: 1000 to 10000 nM for the first, 1000 to 10000 nM for the second.

C[C@@]1(O)CC[C@H]2[C@H](CC[C@@H]3[C@@H]2CC[C@]2(C)[C@H](CO)C[C@@H]32)C1 [I-AB1a, (1R,2aS,2bR,4aR,6R,8aS,8bR,10aS)-1-(hydroxymethyl)-6,10a-dimethylhexadecahydrocyclobuta[a]phenanthren-6-ol] and CC(=O)[C@H]1C[C@H]2[C@@H]3CC[C@H]4C[C@](C)(O)CC[C@@H]4[C@H]3CC[C@]12C [I-AD8, 1-((1S,2aS,2bR,4aS,6R,8aS,8bR,10aS)-6-hydroxy-6,10a-dimethylhexadecahydrocyclobuta[a]phenanthren-1-yl)ethan-1-one] fall in the same range of IC50: 1000 to 10000 nM for the first, 1000 to 10000 nM for the second.

CC(=O)[C@@H]1C[C@H]2[C@@H]3CC[C@@H]4C[C@](C)(O)CC[C@]4(C)[C@H]3CC[C@]12C [Compound I-103a, 1-((1R,2aS,2bR,4aR,6R,8aS,8bS,10aS)-6-hydroxy-6,8a,10a-trimethylhexadecahydrocyclobuta[a]phenanthren-1-yl)ethan-1-one] and C[C@@]1(O)CC[C@H]2[C@H](CC[C@@H]3[C@@H]2CC[C@]2(C)[C@H](C(=O)Cn4cc(C#N)cn4)C[C@@H]32)C1 [Compound I-105, 1-(2-((1R,2aS,2bR,4aR,6R,8aS,8bR,10aS)-6-hydroxy-6,10a-dimethylhexadecahydrocyclobuta[a]phenanthren-1-yl)-2-oxoethyl)-1H-pyrazole-4-carbonitrile] fall in the same range of IC50: 1000 to 10000 nM for the first, 1000 to 10000 nM for the second.

Same assay, conditions: Table I-6; rat brain cortical membranes, 3 nM [35S]-TBPS, in the presence of 5 mM GABA

Compared with C[C@@]1(O)CC[C@H]2[C@H](CC[C@@H]3[C@@H]2CC[C@]2(C)C[C@@H](C(=O)Cn4cc(C#N)cn4)CCC[C@@H]32)C1 [I-BC16, 1-(2-((2R,4aS,4bR,6aR,8S,11aS,11bR,13aR)-2-hydroxy-2,6a-dimethyloctadecahydro-1H-cyclohepta[a]phenanthren-8-yl)-2-oxoethyl)-1H-pyrazole-4-carbonitrile], C[C@@]1(O)CC[C@H]2[C@H](CC[C@@H]3[C@@H]2CC[C@]2(C)C[C@@H](C(=O)Nc4ccccc4)CCC[C@@H]32)C1 [I-BC11, (2R,4aS,4bR,6aR,8S,11aS,11bR,13aR)-2-hydroxy-2,6a-dimethyl-N-phenyloctadecahydro-1H-cyclohepta[a]phenanthrene-8-carboxamide] is higher in IC50: 100 to 1000 nM for the first, 1000 to 10000 nM for the second. The first is the more potent here.

First: C[C@@]1(O)CC[C@H]2[C@H](CC[C@@H]3[C@@H]2CC[C@]2(C)[C@H](C(=O)Nc4ccccc4)CCCC[C@@H]32)C1 [I-BA17a, (2R,4aS,4bR,6aS,7R,11aS,11bR,13aR)-2-hydroxy-2,6a-dimethyl-N-phenyloctadecahydro-1H-cyclohepta[a]phenanthrene-7-carboxamide]
Second: C[C@@]1(O)CC[C@H]2[C@H](CC[C@@H]3[C@@H]2CC[C@]2(C)[C@@H](C#N)CCCC[C@@H]32)C1 [I-BA16, (2R,4aS,4bR,6aS,7S,11aS,11bR,13aR)-2-hydroxy-2,6a-dimethyloctadecahydro-1H-cyclohepta[a]phenanthrene-7-carbonitrile]
The IC50 of the first is higher: 100 to 1000 nM for the first, 10 to 100 nM for the second.
